Test results: ChEMBL document CHEMBL4507291 (2021)

Assays:
[1] = molecular target: T1, Activin receptor type-1B (Homo sapiens) (UniProt P36896)
T1 sequence (whole entry): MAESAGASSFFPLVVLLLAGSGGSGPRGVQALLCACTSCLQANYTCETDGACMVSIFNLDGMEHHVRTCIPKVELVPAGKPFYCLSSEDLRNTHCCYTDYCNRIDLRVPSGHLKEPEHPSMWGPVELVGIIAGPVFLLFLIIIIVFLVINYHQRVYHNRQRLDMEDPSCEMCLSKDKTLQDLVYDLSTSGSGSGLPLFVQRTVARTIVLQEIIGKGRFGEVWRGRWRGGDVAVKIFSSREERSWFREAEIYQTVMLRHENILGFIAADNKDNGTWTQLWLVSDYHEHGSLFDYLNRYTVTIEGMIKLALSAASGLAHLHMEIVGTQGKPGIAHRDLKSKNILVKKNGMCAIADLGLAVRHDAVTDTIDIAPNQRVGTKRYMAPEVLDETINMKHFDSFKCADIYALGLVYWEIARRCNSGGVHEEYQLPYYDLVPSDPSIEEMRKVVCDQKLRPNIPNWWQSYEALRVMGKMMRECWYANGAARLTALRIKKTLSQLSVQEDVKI

[2] = molecular target: Calcium/calmodulin-dependent protein kinase type IV (Homo sapiens) (UniProt Q16566)
[3] = molecular target: Cyclin-dependent kinase-like 1 (Homo sapiens) (UniProt Q00532)
[4] = molecular target: T2, Ephrin type-A receptor 3 (Homo sapiens) (UniProt P29320)
T2 sequence (whole entry): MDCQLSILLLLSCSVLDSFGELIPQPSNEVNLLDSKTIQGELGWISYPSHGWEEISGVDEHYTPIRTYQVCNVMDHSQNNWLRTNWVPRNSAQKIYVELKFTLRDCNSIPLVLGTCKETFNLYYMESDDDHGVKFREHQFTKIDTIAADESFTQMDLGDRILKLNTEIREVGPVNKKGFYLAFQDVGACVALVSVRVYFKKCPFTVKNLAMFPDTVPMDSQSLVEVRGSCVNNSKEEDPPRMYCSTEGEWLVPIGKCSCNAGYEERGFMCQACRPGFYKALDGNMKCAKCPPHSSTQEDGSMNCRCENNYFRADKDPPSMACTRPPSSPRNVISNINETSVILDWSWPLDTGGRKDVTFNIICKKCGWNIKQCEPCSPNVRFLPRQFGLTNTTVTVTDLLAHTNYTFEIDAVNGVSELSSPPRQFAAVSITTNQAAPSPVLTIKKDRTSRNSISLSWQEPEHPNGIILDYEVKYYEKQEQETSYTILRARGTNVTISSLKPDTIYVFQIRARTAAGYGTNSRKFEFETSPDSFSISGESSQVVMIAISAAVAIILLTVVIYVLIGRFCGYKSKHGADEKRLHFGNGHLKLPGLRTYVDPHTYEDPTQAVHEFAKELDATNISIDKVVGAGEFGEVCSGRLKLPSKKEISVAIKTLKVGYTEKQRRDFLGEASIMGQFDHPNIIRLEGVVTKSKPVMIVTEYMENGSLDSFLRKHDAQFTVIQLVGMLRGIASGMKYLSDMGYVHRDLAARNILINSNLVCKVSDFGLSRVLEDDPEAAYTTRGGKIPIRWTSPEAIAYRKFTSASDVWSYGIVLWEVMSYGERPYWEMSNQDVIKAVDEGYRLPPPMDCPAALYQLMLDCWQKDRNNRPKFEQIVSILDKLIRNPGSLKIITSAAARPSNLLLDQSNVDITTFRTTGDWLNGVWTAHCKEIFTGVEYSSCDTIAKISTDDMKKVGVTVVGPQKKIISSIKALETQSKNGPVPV

[5] = molecular target: Tyrosine-protein kinase FRK (Homo sapiens) (UniProt P42685)
[6] = molecular target: MAP kinase-interacting serine/threonine-protein kinase 1 (Homo sapiens) (UniProt Q9BUB5)
[7] = molecular target: Serine/threonine-protein kinase pim-1 (Homo sapiens) (UniProt P11309)
[8] = molecular target: Serine/threonine-protein kinase pim-3 (Homo sapiens) (UniProt Q86V86)
[9] = molecular target: T3, Serine/threonine-protein kinase TBK1 (Homo sapiens) (UniProt Q9UHD2)
T3 sequence (whole entry): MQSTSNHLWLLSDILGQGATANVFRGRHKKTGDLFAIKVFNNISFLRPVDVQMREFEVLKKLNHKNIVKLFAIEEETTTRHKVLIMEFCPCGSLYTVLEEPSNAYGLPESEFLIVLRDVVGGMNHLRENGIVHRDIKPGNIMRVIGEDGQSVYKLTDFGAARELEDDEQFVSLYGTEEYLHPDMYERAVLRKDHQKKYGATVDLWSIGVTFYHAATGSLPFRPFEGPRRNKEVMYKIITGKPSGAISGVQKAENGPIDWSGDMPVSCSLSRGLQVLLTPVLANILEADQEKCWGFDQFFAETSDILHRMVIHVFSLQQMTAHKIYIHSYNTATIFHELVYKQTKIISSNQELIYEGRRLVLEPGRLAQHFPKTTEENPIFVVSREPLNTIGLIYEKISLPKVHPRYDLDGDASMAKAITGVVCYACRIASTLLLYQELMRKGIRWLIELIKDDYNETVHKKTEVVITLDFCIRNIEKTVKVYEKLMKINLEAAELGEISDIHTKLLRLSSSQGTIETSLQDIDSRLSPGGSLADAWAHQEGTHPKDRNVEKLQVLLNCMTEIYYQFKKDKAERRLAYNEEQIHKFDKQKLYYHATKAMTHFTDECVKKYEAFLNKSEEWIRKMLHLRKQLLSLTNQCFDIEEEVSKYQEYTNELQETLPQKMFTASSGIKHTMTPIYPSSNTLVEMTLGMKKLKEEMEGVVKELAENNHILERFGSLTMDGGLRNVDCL

[10] = molecular target: High affinity nerve growth factor receptor (Homo sapiens) (UniProt P04629)
[11] = molecular target: Beta-2 adrenergic receptor (Homo sapiens) (UniProt P07550); details: Compound concentration 10.0 uM
[12] = Compound concentration 1000.0 nM
[13] = Compound concentration 100.0 nM

MAP kinase-interacting serine/threonine-protein kinase 1 (Homo sapiens), sequence (Q9BUB5 whole entry, looked up): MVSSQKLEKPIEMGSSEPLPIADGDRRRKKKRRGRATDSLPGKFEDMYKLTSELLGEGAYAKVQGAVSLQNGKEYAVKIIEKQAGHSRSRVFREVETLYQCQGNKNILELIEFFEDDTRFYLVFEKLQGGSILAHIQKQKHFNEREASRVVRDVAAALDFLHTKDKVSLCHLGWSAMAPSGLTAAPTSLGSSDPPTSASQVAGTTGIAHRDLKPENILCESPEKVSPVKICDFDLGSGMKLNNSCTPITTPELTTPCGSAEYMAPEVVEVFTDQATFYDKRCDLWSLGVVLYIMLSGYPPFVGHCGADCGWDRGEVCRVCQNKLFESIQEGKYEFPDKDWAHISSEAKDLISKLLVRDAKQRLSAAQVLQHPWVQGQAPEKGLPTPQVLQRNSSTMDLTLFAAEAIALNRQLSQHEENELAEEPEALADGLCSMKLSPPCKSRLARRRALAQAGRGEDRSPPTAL
Tyrosine-protein kinase FRK (Homo sapiens), sequence (P42685 whole entry): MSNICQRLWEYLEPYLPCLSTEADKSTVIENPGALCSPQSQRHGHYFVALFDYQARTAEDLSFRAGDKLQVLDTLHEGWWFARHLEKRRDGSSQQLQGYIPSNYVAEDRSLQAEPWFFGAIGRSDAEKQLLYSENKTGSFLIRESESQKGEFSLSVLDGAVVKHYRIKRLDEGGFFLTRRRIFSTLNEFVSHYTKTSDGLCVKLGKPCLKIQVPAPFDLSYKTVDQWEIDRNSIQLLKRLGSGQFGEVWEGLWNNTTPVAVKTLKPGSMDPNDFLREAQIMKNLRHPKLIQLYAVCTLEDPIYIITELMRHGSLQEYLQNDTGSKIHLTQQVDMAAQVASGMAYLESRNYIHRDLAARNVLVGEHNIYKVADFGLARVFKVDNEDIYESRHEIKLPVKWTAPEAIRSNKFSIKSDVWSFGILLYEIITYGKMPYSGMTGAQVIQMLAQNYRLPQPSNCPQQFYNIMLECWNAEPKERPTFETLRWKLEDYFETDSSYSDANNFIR
High affinity nerve growth factor receptor (Homo sapiens), sequence (P04629 33-796 limits assumed): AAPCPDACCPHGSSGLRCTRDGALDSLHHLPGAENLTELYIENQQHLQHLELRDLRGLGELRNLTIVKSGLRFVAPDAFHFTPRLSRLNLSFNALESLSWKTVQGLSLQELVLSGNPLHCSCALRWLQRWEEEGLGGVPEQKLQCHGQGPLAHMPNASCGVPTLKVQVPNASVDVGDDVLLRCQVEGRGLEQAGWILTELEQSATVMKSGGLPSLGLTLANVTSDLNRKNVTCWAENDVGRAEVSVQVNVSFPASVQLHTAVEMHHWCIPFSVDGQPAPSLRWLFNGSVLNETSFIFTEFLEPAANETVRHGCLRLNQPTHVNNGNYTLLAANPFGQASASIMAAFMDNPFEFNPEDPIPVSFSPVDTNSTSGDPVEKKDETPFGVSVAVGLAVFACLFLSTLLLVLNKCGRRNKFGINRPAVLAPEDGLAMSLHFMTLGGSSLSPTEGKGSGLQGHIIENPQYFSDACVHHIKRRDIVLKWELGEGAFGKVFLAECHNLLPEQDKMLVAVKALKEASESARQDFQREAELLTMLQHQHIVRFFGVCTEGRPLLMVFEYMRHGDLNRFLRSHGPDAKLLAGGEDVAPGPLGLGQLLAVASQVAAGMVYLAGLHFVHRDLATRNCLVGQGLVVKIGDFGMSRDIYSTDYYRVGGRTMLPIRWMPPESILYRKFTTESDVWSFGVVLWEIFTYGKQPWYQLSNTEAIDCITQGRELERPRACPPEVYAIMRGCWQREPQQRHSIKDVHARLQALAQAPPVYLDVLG
Calcium/calmodulin-dependent protein kinase type IV (Homo sapiens), sequence (Q16566 whole entry): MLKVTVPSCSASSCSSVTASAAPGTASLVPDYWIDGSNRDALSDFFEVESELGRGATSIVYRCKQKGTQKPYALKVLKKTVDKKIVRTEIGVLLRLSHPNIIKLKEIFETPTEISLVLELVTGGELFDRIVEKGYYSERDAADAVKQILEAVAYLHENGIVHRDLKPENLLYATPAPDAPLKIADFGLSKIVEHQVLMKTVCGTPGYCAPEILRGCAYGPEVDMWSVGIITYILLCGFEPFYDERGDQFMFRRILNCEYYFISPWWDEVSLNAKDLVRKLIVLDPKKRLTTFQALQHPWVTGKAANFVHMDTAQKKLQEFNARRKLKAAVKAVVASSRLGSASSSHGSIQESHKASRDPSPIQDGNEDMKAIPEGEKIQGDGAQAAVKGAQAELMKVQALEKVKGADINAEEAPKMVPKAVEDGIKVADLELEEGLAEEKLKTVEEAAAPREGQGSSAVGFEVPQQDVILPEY
Beta-2 adrenergic receptor (Homo sapiens), sequence (P07550 whole entry, looked up): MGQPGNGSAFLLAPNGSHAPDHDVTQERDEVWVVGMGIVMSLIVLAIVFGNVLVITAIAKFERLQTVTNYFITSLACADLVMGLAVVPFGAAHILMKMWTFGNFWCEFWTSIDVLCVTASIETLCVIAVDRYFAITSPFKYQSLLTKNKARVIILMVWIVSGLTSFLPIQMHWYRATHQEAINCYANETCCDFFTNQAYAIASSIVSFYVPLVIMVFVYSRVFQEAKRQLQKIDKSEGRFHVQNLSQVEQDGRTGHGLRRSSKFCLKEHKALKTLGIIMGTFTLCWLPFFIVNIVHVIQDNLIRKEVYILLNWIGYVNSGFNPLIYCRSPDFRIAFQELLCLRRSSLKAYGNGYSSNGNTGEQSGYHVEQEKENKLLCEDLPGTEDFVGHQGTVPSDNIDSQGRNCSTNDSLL
Serine/threonine-protein kinase pim-1 (Homo sapiens), sequence (P11309 whole entry, looked up): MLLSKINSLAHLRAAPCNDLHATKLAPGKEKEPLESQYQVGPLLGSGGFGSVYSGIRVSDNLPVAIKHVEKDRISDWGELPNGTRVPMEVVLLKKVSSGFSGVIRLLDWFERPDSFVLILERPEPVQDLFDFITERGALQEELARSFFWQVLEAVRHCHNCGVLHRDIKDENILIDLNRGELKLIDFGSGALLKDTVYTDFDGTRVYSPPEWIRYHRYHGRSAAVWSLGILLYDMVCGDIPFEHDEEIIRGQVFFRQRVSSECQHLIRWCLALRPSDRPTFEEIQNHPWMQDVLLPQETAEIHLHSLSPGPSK
Cyclin-dependent kinase-like 1 (Homo sapiens), sequence (Q00532 whole entry): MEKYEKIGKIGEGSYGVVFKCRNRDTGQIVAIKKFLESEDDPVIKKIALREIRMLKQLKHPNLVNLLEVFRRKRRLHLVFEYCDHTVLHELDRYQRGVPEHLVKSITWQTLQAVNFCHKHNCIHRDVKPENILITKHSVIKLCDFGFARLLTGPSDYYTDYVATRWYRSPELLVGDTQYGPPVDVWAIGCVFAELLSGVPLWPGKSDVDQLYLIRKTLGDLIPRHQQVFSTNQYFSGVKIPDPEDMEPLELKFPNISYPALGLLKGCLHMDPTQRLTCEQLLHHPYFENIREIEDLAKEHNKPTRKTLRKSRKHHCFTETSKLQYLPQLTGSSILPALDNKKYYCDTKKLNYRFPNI

C[C@@H]1CN(c2cc(-c3nn(C)c4ccc(OC5(C)CC5)cc34)ncn2)C[C@H](C)O1 [MLi-2-NC]
inactive: residual activity [1, 12] 78% | residual activity [2, 12] 67% | residual activity [3, 12] 89% | residual activity [4, 12] 68% | residual activity [5, 12] 100% | residual activity [6, 12] 79% | residual activity [7, 12] 77% | residual activity [8, 12] 92% | residual activity [9, 12] 75% | residual activity [10, 12] 76% | inhibition [11] 13.8%

C[C@@H]1CN(c2cc(-c3n[nH]c4ccc(OC5(C)CC5)cc34)ncn2)C[C@H](C)O1 [MLi-2]
inactive: residual activity [1, 13] 90% | residual activity [2, 13] 78% | residual activity [3, 13] 89% | residual activity [4, 13] 93% | residual activity [5, 13] 100% | residual activity [6, 13] 67% | residual activity [7, 13] 100% | residual activity [8, 13] 100% | residual activity [9, 13] 68% | residual activity [10, 13] 73% | inhibition [11] 26.4%
